Measured values: patent publication US20070048812A1, “Cell-based luminogenic and nonluminogenic proteasome assays” (priority 2005, published 2007)
Marks after values point to notes of the source that are not given here. *1 amine or outer side, *2 acyl side, *3 side chain or, on linkers, in order; H or OH if unused. Where no end group is shown, it is not given here. [ ]: non-standard residue; d: D form. The star is where a group is joined. aminoluciferin = O=C(O)[C@H]1CSC(c2nc3ccc(N*)cc3s2)=N1; AFC = O=c1cc(C(F)(F)F)c2ccc(N*)cc2o1; AMC = Cc1cc(=O)oc2cc(N*)ccc12; Suc = O=C(CCC(=O)[*:2])[*:1]; code Z = not defined here; Cbz = O=C(OCc1ccccc1)*

Assays:
[1] = system: untreated viable HL-60 or Jurkat cells; experiment: Protease retention: substrate cleavage in untreated viable cells; assay type: cell-based; set-up: key: None denotes no statistical activity above control population.; (+) to (+++++) denotes the range of activity above control population from modest to robust; (+) to (+++++) denotes the range of activity above control population from modest to robust; (+) to (+++++) denotes the range of activity above control population from modest to robust; (+) to (+++++) denotes the range of activity above control population from modest to robust; (+) to (+++++) denotes the range of activity above control population from modest to robust; settings: proteolytic activity on substrate in untreated viable HL-60 or Jurkat cells, above control population; 15-30 min 37° C.
Protocol: (§1) All substrates were solubilized in DMSO from 10 to 100 mM depending upon inherent solubility. Fluorescent substrates were diluted to 100 μM to 1 mM in 10 mM Hepes, pH 7.5 or matched cell culture medium with 10% serum and added in 1/10th volumes to lysed (freeze fractured, sonicated, or detergent) or untreated viable cells in white-walled, clear bottomed 96-well plates. HL-60 or Jurkat were used in the experimentation interchangeably because of their easily manipulated suspension phenotype. Plates were incubated for 15-30 minutes at 37° C. prior to measuring fluorescence by the CytoFluor II.
(§2) Luminescent substrates were added to a luciferin detection cake (Promega V859A) resuspended in 2 ml 10 mM Hepes, pH 7.5 to 500 μM. ⅕^th volume of the proluminescent reaction mixes were added to lysed (freeze fractured, sonicated, or detergent) or untreated viable cells in white-walled, clear bottomed 96-well plates. Again, HL-60 or Jurkat were used in the experimentation interchangeably. Plates were incubated at 37° C. in a MeCour' circulating heat block controlled by a Caron 2050 W exchange unit. Luminescence was measured between 15 and 30 minutes (signal steady state).
(§3) A broad variety of proteolytic substrates were examined in an effort to characterize potential substrate preferences for protease release or retention in compromised or viable cells (see Table 3). […] Non-blocked substrates (H- and the like) were examined to include the contribution of aminopeptidase activities. From this panel, at least three proteolytic profiles emerged: an aminopeptidase-like activity preferring unblocked Ala-Ala-Phe tripeptide, a proteosomal (chymotrypsin-like) activity measured by release of blocked Leu-Leu-Val-Tyr (SEQ ID NO:1) peptides, and an exceedingly labile activity by Gly-Phe, Gly-Ala, Phe-, Tyr- or Gly-Gly-Leu substrates. The latter activities were only measurable in viable, intact cells. Of further significance is that several fluorophores or proluminescent labels can be used to detect these activities, ultimately allowing for enhanced downstream multiplexing flexibility.

[2] = system: lysed HL-60 or Jurkat cells; experiment: Protease release: substrate cleavage in lysed (compromised) cells; assay type: cell-based; set-up: key: None denotes no statistical activity above control population.; (+) to (+++++) denotes the range of activity above control population from modest to robust; (+) to (+++++) denotes the range of activity above control population from modest to robust; (+) to (+++++) denotes the range of activity above control population from modest to robust; (+) to (+++++) denotes the range of activity above control population from modest to robust; (+) to (+++++) denotes the range of activity above control population from modest to robust; settings: proteolytic activity on substrate in lysed (freeze fractured, sonicated or detergent) HL-60 or Jurkat cells, above control population; 15-30 min 37° C.
Protocol: as §1, §2, §3

[3] = system: proteasome or luciferase activity in HL-60 cells; experiment: Screen of cell membrane permeabilization reagents in cell-based luminescent proteasome reaction; settings: 25,000 HL-60 cells, detergent 0.05 and 0.1% final, 22° C., LLVY-aminoluciferin
Protocol: FIGS. 10A-C. Screen for cell membrane permeabilization reagents suitable to detect proteasomes in a cell-based luminescent reaction.
Other permeabilizing agents were screened for those suitable to detect proteasome activity in a cell-based assay (FIGS. 10A-C). Reagents containing low concentrations of various detergents (0.05 and 0.1% final) were prepared. 100 μl/well samples containing 25,000 HL-60 cells in complete medium were added to a 96-well plate and equilibrated at 37° C. The plate and reagents were cooled to 22° C. and an equal volume of reagent was added to each sample. The plate was shaken for 1 minute, then incubated at 22° C. Luminescence was then determined over time.

[4] = system: proteasome activity in HL-60 cells; experiment: Cell-based luminescent proteasome assay in HL-60 cells; settings: 1.5 hour treatment (FIG. 2B)
SK-MEL-28 cells = experiment: Multiplexed protease retention (Gly-Phe-AFC) and Caspase-Glo 3/7 assay; assay type: cell-based; settings: serial dilutions, 5 hours
Protocol: (§4) SK-MEL-28 or ACHN cells were seeded into white-walled, clear bottomed 96 well plates at a density of 10,000 cells per well in 100 μl volumes and allowed to attach at 37° C. in 5% CO2 for a period of 2 hours. After attachment, 50 μl of medium was carefully removed and replaced with serial dilutions of either ionomycin or staurosporine in MEM+10% FBS. Medium only served as control. The plate was incubated for an additional 5 hours. A 1 mM solution of Gly-Phe-AFC was made in MEM and added to the wells in a 1/10th volume. Resulting fluorescence was measured using a CytoFluor II. Caspase-Glo™ 3/7 reagent was then added and luminescence measure using a BMG FLUOstar Optima.

ACHN cells = experiment: as above; assay type: cell-based; settings: serial dilutions, 5 hours
Protocol: as §4

| Compound | Retention [1] | Release [2] | also measured |
| --- | --- | --- | --- |
| Suc-Ala-Ala-Phe-{AMC} | None | None |  |
| C[C@H](CCC(=O)NCCC[N+](C)(C)CCCS(=O)(=O)[O-])[C@H]1CC[C@H]2[C@@H]3[C@H](O)C[C@@H]4C[C@H](O)CC[C@]4(C)[C@H]3C[C@H](O)[C@]12C [CHAPS] |  |  | effect on proteasome or luciferase activity [3]: negative effects |
| Ac-Ala-Ala-Tyr-{AMC} | None | None |  |
| Z-Arg-Leu-Arg-Gly-Gly-AMC (RLRGG; Z N-terminal, AMC C-terminal) | None | None |  |
| Z-Phe-Arg-aminoluciferin [Z-Phe-Arg-Aluc] | None | None |  |
| (Ala-Ala-Phe)2-R110 [(Ala-Ala-Phe) 2 R110] | None | ++++ |  |
| H-[dA]-Leu-Lys-{AMC} | None | None |  |
| Glutyl-Ala-Ala-Phe-AMC [Gluty-Ala-Ala-Phe-AMC] | None | None |  |
| H-Gly-Ala-{AMC} | ++ | None |  |
| CCCCCCCCCCCCOS(=O)(=O)[O-].[Na+] [SDS] |  |  | effect on proteasome or luciferase activity [3]: negative effects |
| Triton X-100 |  |  | effect on proteasome or luciferase activity [3]: did not substantially effect |
| Tergitol® NP-9 |  |  | effect on proteasome or luciferase activity [3]: did not substantially effect |
| Ala-Ala-Phe-aminoluciferin | None | ++++ |  |
| Suc-Leu-Leu-Val-Tyr-AMC (Suc-LLVY-{AMC}; SMILES Cc1cc(=O)oc2cc(NC(=O)[C@H](Cc3ccc(O)cc3)NC(=O)[C@@H](NC(=O)[C@H](CC(C)C)NC(=O)[C@H](CC(C)C)NC(=O)CCC(=O)O)C(C)C)ccc12) | None | + |  |
| Ala-Ala-Phe-{AMC} | None | ++++ |  |
| H-Gly-Phe-{AMC} | ++ | None |  |
| Cc1cc(=O)oc2cc(NC(=O)[C@@H](N)Cc3ccc(O)cc3)ccc12 [H-Tyr-AMC] | ++ | None |  |

| Compound | Retention [1] | Release [2] | also measured |
| --- | --- | --- | --- |
| Z-Leu-Arg-Gly-Gly-AMC (LRGG; Z N-terminal, AMC C-terminal) | None | None |  |
| CCCC[C@@H](C=O)NC(=O)[C@H](CC(C)C)NC(=O)OCc1ccccc1 [Calpeptin, calpeptin] |  |  | effect on proteasome activity [4]: minimal effect |
| Z-Leu-Arg-aminoluciferin [Z-Leu-Arg-Aluc] | None | None |  |
| Tween®-20 |  |  | effect on proteasome or luciferase activity [3]: negative effects |
| Z-Leu-Leu-Val-Tyr-aminoluciferin ({code Z}-LLVY-aminoluciferin; reading uncertain; also: printed as Z-Leu-Leu-Val-Tyr-aminoluciferin) [Z-Leu-Leu-Val-Tyr-Aluc] | None | ++ |  |
| C[C@H](CCC(=O)O)C[C@H](C)C[C@H](C)C(=O)/C=C(\O)[C@H](C)C[C@H](C)C/C=C/[C@@H](C)[C@@H](O)[C@@H](C)[C@@H](O)C[C@@H]1CC[C@@](C)([C@H]2CC[C@@](C)([C@@H](C)O)O2)O1 [ionomycin] |  |  | cytotoxicity profile (protease retention viability and caspase 3/7 activity) (SK-MEL-28 cells): necrotic-type profile |
| Suc-Arg-Pro-Phe-His-Leu-Leu-Val-Tyr-AMC (Suc-RPFHLLVY-{AMC}; SMILES Cc1cc(=O)oc2cc(NC(=O)[C@H](Cc3ccc(O)cc3)NC(=O)[C@@H](NC(=O)[C@H](CC(C)C)NC(=O)[C@H](CC(C)C)NC(=O)[C@H](Cc3c[nH]cn3)NC(=O)[C@H](Cc3ccccc3)NC(=O)[C@@H]3CCCN3C(=O)[C@H](CCCNC(=N)N)NC(=O)CCC(=O)O)C(C)C)ccc12) [S-R-P-F-H-L-L-V-Y-AMC] | None | None |  |
| Cbz-Gly-Ala-Met-{AMC} | None | None |  |
| Cc1cc(=O)oc2cc(NC(=O)[C@@H](N)Cc3ccccc3)ccc12 [H-Phe-AMC] | +++ | None |  |
| Ser-Tyr-{AFC} | None | None |  |
| (Gly-Phe)2-R110 [(Gly-Phe)2 R110] | None | None |  |
| Cbz-Gly-Gly-Leu-{AMC} | ++* | None |  |
| H-Pro-Phe-Arg-{AMC} | None | None |  |
| H-Gly-Gly-{AMC} | None | None |  |
| Cbz-Phe-Arg-{AMC} | None^1 | None |  |
| CN[C@@H]1C[C@H]2O[C@@](C)([C@@H]1OC)n1c3ccccc3c3c4c(c5c6ccccc6n2c5c31)C(=O)NC4 [staurosporine] |  |  | cytotoxicity profile (protease retention viability and caspase 3/7 activity) (ACHN cells): apoptotic profile; cytotoxicity profile (protease retention viability and caspase 3/7 activity) (SK-MEL-28 cells): caspase activation (and therefore apoptosis induction) is evident |
| Gly-Phe-{AFC} | ++++ | None |  |
